This is an account of results in article PMC4525181, “Structural and dynamic insights into the energetics of activation loop rearrangement in FGFR1 kinase” (Nature Communications, 2015).

As a reminder, the kon is the rate constant with which the complex forms. One may read the koff as a measure of how fast the partners let go of each other.

“And” between values parts separate entries of the source, which are not always exact repeats. Equal values may be shown once. Read-outs that look alike come from different tables or passages of the source.

The test system of one data set is N550K mutation in FGFR2. The note with it: N550K mutant relative to wild-type, BaF3 cells; cited from earlier work.
In data set [1] the target is T1, FGFR1 kinase domain (Homo sapiens, UniProt P11362, C488A/C584S).
T1 construct: Human FGFR1 consisting of residues Ala458-Glu765; made in house; host or cells: Escherichia coli, co-expressed with PTP1B
Kind of data set: SPR kinetic analysis of inhibitors binding to FGFR1 kinase domain. The protocol:
The hexa-histidine tag was cleaved from protein by overnight treatment with TEV protease and concomitant dialysis, immediately after the IMAC step. Purified protein in a buffer comprising 20 mM Tris-HCl, pH 8.0, 20 mM NaCl, 2 mM TCEP, was snap frozen in liquid nitrogen and stored at −80 °C. For NMR studies, an additional mutation (Asp623Ala) was introduced to improve the yield of stable isotope-labelled FGFR1 kinase protein[22]. Uniform isotopic labelling was achieved by growing E. coli BL21 (DE3) Star cells in D2O-based M9 minimal medium supplemented with ^15NH4Cl (Cambridge Isotope Laboratories or Sigma Aldrich) together with U-[^1H,^13C]- or (for fully deuterated samples) U-[^2H,^13C]-glucose (Cambridge Isotope Laboratories or Sigma Aldrich) as sole nitrogen and carbon sources, respectively. Purification was by IMAC and ion exchange chromatography; the 6 × His tag was not cleaved from the protein used for NMR. Human Abl consisting of residues Ser248-Val534 with an engineered TEV-cleavable N-terminal 6 × His tag and mutation Asn355Ser was expressed and purified as described[50] with minor modifications. For biophysical studies, the 6 × His tag was retained intact for both kinases as it was used for immobilization on a nitrilotriacetic acid (NTA) sensor chip.
Non-phosphorylated, histidine-tagged FGFR1 and non-phosphorylated, histidine-tagged Abl were immobilized as the ligand onto NTA sensor chips using a capture coupling method. The NTA surface was first activated with 500 μM NiSO4 in immobilization buffer. The carboxymethyl dextran surface was then activated with a 1:1 ratio of 0.4 M EDC and 0.1 M NHS. Hexa-histidine-tagged protein was diluted into immobilization buffer to a concentration of 30 μg ml^−1, and immobilized onto the surface with a 7-min injection. Remaining activated groups were blocked with 0.1 M Tris, pH 8.0. […] PBS, pH 7.4, 50 μM EDTA and 0.05% Surfactant P20 (v/v) (for Abl supplemented with 10% glycerol (v/v)) were used as immobilization buffer. […] SPR experiments were performed using the Biacore 3000, Biacore S51 and Biacore T200 biosensors (GE Healthcare), with NTA and series S NTA sensor chips (GE Healthcare). All FGFR1 binding experiments were done using PBS (pH range 7.0–7.4), 50 μM EDTA, 0.05% Surfactant P20 (v/v) and 1% DMSO (v/v) or 50 mM Bis-Tris (pH range 5.5–6.5), 100 mM NaCl, 50 μM EDTA, 0.05% Surfactant P20 (v/v) and 1% DMSO (v/v), as running buffer. All Abl binding experiments were conducted using PBS, pH 7.4, 50 μM EDTA, 0.05% Surfactant P20 (v/v), 10% glycerol (v/v) and 1% DMSO (v/v) as running buffer. […] Finally, they were diluted 1:100 (v/v) in running buffer without DMSO to achieve the target concentration resulting in a final DMSO concentration of 1% (v/v).
The highest compound concentration varied, but for all analytes five sequential injections with constant injection time and a constant dilution factor were done. All analyte concentrations were injected in one cycle, one after the other for 120 s with a short dissociation phase in between injections (∼60 s) and with a longer dissociation phase at the end of the cycle (1,000 to 20,000 s that varied depending on the expected dissociation rate constant of the analyte). Zero-buffer blank injections were included for referencing. Biacore T200 evaluation software and BIAevaluation 4.1 software, respectively, were used for processing and analysing data. Rate constants were calculated globally from the obtained sensorgram data by fitting to a 1:1 interaction model. Representative sensorgrams are shown in Supplementary Fig. 6. Multi-cycle kinetic analysis was carried out as previously described. Binding affinities (KD) were calculated from the equation KD=koff/kon.

The target in data set [2] is T1, FGFR1 kinase domain. Kind of data set: Isothermal titration calorimetry (ITC) of inhibitors binding to FGFR1. The note with it: for heat capacity change ΔCp: ITC titrations at 10-35 °C, slope of ΔH vs T; for -TΔS (ITC) / N (ITC stoichiometry) / ΔG (ITC) / ΔH (ITC): 298.15 K. Here is the method:
ITC experiments were carried out using an ITC200 instrument (Microcal Inc., GE Healthcare)[59]. Final ligand concentrations were achieved by diluting ligand stock solutions in DMSO 1:50 (v/v) in the experimental buffer, resulting in a final DMSO concentration of 2% (v/v). Protein concentration was determined by measuring the absorbance at 280 nm. DMSO concentration in the protein solution was adjusted to 2% (v/v). ITC measurements were routinely performed at 25 °C in 20 mM Tris, pH 7.8, 20 mM NaCl, 2 mM TCEP and 2% DMSO (v/v). The titrations were performed on 10−20 μM FGFR1 in the 200 μl sample cell using 2 μl injections of 0.1−0.2 mM ligand solution every 120 s. To correct for heats of dilution and mixing, the final baseline consisting of small peaks of identical size at the end of the experiment was subtracted. Representative ITC titrations are shown in Supplementary Fig. 2. To determine the heat capacity ΔCp of ligands binding to FGFR1, ITC titrations were performed as described above at 10, 15, 20, 25, 30 and 35 °C. Binding enthalpies derived from ITC experiments were plotted as ΔH against T and ΔCp are given by the slope of the linear regression analysis according to equation (3) (Supplementary Fig. 7): […]
(In general: In ITC the heat of successive injections is recorded.)

In data set [3] the target is T1, FGFR1 kinase domain. Nature of the data set: SPR thermodynamic analysis (non-linear van't Hoff). It counts as binding. The note with it: T0=298 K, SPR temperature dependence. Here is the method:
(§1) Binding affinities (KD) were therefore determined from dosage experiments and binding responses at equilibrium were fit to a 1:1 steady-state affinity model available within the Scrubber 2 software (BioLogic Software Ltd., Campbell, Australia).
(§2) Transition state thermodynamic quantities were determined from the kinetic association (kon) and dissociation (koff) rate constants as previously described[64] by plotting ln (kh/kBT) versus 1/T according to the linear Eyring equation (2).

The target of data set [4] is T1, FGFR1 kinase domain. Nature of the data set: Transition state thermodynamics from linear Eyring plots (SPR rate constants vs temperature). Format: binding. Conditions: Eyring analysis. The protocol: as §1, §2
Here k is either the association rate constant (kon) or the dissociation rate constant (koff). ΔH and ΔS are the changes in […] enthalpy and entropy of binding, respectively, while the superscript ‘*' denotes that these refer to a transition state.

The next data set has as its target T2, FGFR1 Asp623Ala mutant (Homo sapiens, UniProt P11362, C488A/C584S/D623A).
T2 construct: a construct spanning residues Ala458 to Glu765 of human FGFR1; made in house; host or cells: Escherichia coli
Kind of data set: SPR binding to Asp623Ala mutant of FGFR1 kinase domain. Conditions: data not shown. The text has this: For our studies of the FGFR1 kinase domain, we have used a construct spanning residues Ala458 to Glu765 of human FGFR1 that contains two mutations (Cys488Ala and Cys584Ser) designed to stabilize the enzyme against covalent aggregation. The protein is non-phosphorylated after co-expression with PTP1B and purification from Escherichia coli. An additional mutation of the catalytic aspartate (Asp623Ala) was introduced for NMR studies to increase further the yield of stable isotope-labelled protein. […] In addition, we have confirmed using surface plasmon resonance (SPR) that binding parameters for a close analogue of the canonical FGFR1 inhibitor PD173074 (ref. [23]; henceforth referred to as PDA; Fig. 1a; Supplementary Fig. 1) are unaltered for the Asp623Ala mutant relative to the kinase-active form (data not shown).
(Surface plasmon resonance follows binding to a sensor surface in real time, without labels.)

In the next data set the target is Asp641 (UniProt position 641, VMKIADFGLAR). Kind of data set: kinetics (surface plasmon resonance). Conditions: 298 K; PBS (pH 7.0-7.4) or 100 mM NaCl with 50 mM Bis-Tris (pH 5.5-6.5); PBS (pH 7.0-7.4) or 50 mM Bis-Tris (pH 5.5-6.5) with 100 mM NaCl. Both contain 50 µM EDTA, 0.05% Surfactant P20 and 1% DMSO.; Non-phosphorylated, initially ligand-free FGFR1 kinase domain immobilised on an NTA chip. The rate reports on the DFG-in to DFG-out transition required for ponatinib binding.

T1 sequence (P11362 458-765 C488A/C584S): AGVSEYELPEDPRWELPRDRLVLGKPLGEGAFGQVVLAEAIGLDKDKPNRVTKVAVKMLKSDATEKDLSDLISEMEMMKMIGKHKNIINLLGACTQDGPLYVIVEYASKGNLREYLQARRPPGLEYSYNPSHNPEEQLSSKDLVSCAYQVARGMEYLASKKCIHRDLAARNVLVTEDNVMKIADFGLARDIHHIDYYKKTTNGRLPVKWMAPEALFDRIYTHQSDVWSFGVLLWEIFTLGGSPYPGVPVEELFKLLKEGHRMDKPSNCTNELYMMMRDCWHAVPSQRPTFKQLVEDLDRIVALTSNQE
T2 sequence (P11362 458-765 C488A/C584S/D623A): as the sequence (P11362 458-765 C488A/C584S) above, with D166A counted along it

For the compound `CCN(CC)CCCCNc1ncc2cc(-c3cc(OC)cc(OC)c3)c(NC(=O)NC(C)(C)C)nc2n1` [PD173074], in the data set with N550K mutation in FGFR2, the “effect of FGFR2 N550K mutation on inhibitor potency” value is given as “confers resistance”.

As to `CCN(CC)CCCNc1ncc2cc(-c3cc(OC)cc(OC)c3)c(NC(=O)NC(C)(C)C)nc2n1` [PDA], on FGFR1 kinase domain [1] (1.2 M GdmCl vs absence of GdmCl), the “KD, fold weaker in the presence of 1.2 M GdmCl” value was roughly 2 fold. Further, on FGFR1 kinase domain [1] (SPR 298 K, pH decreased from 7.4 to 5.5), the “association rate constant as a function of pH” value is recorded as “no dependence on pH”. Also, the kon on FGFR1 kinase domain [1] (SPR, 1.2 M GdmCl in PBS running buffer, read-out: association rate constant kon in the presence of 1.2 M GdmCl) was determined as 680000 M⁻¹ s⁻¹. Also, the koff at FGFR1 kinase domain [1] (SPR, 1.2 M GdmCl in PBS running buffer, read-out: dissociation rate constant koff in the presence of 1.2 M GdmCl) amounted to 0.0018 s⁻¹. The Kd at FGFR1 kinase domain [1] (SPR, 298 K, pH 7.4, read-out: KD (koff/kon)) is 5.7 nM. The kon at FGFR1 kinase domain [1] (SPR, 298 K, pH 7.4, read-out: association rate constant kon) was found to be 1.6e+06 M⁻¹ s⁻¹. Moreover, the off-rate constant (koff) on FGFR1 kinase domain [1] (SPR, 298 K, pH 7.4, read-out: dissociation rate constant koff) amounted to 0.0092 s⁻¹. The “heat capacity change ΔCp” value at FGFR1 kinase domain [2] is given as -359 cal mol^−1 K^−1. The compound also had a Kd at FGFR1 kinase domain [2] (ITC, 298 K) of 8.8 nM. On FGFR1 kinase domain [2] (ITC), the “-TΔS (ITC)” value was found to be 1.1 ± 0.0 kcal/mol; the “N (ITC stoichiometry)” value worked out at 0.8±0.02; the “ΔG (ITC)” value is -11.0 ± 0.0 kcal/mol; the “ΔH (ITC)” value is -12.1 kcal/mol and -12.1 ± 1.8 kcal/mol. On FGFR1 kinase domain [3], the “ΔG0 van't Hoff” value was -11.1 ± 0.02 kcal/mol; the “ΔH0 van't Hoff” value was -11.5 kcal/mol and -11.5 ± 0.8 kcal/mol; the “−TΔS0 van't Hoff” value amounted to 0.4 ± 0.8 kcal/mol. For the same compound, on FGFR1 kinase domain [4] (association phase), the “ΔG# ass (transition state free-energy barrier, association)” value was 8.7 ± 1.8 kcal/mol and 8.7 kcal/mol; the “ΔH# ass (transition state enthalpy, association)” value is 16.6 ± 1.3 kcal/mol and 16.6 kcal/mol; the “−TΔS# ass (transition state entropy, association)” value was -7.9 ± 1.3 kcal/mol and -7.9 kcal/mol. For the same compound, on FGFR1 kinase domain [4] (dissociation phase), the “-TΔS# diss” value is -5.3 ± 1.8 kcal/mol, the “ΔG# diss” value was determined as 19.5 ± 2.6 kcal/mol and the “ΔH# diss” value came to 24.8 ± 1.8 kcal/mol. Moreover, the “binding parameters for Asp623Ala mutant relative to the kinase-active form” value at FGFR1 Asp623Ala mutant is on record as “unaltered”.

With `Cc1ccc(C(=O)Nc2ccc(CN3CCN(C)CC3)c(C(F)(F)F)c2)cc1C#Cc1cnc2cccnn12` [ponatinib], the “effect of FGFR2 N550K mutation on inhibitor potency” value in the data set on N550K mutation in FGFR2 is on record as “enhanced inhibitory potency against this mutant relative to wild-type”.

On to “Fibroblast growth factor receptor 1 (FGFR1) kinase domain (Homo sapiens; C488A;C584S)”, for which the pKa in the data set with Asp641 is on record as 6.25.

For SU5402, the “heat capacity change ΔCp” value at FGFR1 kinase domain [2] is -172 cal mol^−1 K^−1. Besides, at FGFR1 kinase domain [2] (ITC), the “-TΔS (ITC)” value was determined as 2.7 ± 0.2 kcal/mol; the “N (ITC stoichiometry)” value was 1.0±0.04; the “ΔG (ITC)” value was -9.7 ± 0.1 kcal/mol; the “ΔH (ITC)” value is -12.4 kcal/mol and -12.4 ± 0.2 kcal/mol. In addition, at FGFR1 kinase domain [3], the “ΔG0 van't Hoff” value was -9.5 ± 0.02 kcal/mol; the “ΔH0 van't Hoff” value was -14.2 kcal/mol and -14.2 ± 0.8 kcal/mol; the “−TΔS0 van't Hoff” value worked out at 4.8 ± 0.8 kcal/mol.
